The source of these data is the supplement of paper PMC8837787.

This assay has as its system Saccharomyces cerevisiae ABC16-Green Monster. The assay can be described thus: growth inhibition at single dose (up to 150 µM), below the 70% cut-off for dose-response; higher = more potent. The conditions noted are these: 18 h; 30 °C; YPD. The essentials: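 Values are percent growth inhibition of drug-sensitive S. cerevisiae ABC16-Green Monster cells. Cells grown overnight in YPD at 30 °C were diluted to log phase (OD600 0.1–0.2), and each library compound was added at a single dose of 150 µM to 200 µl culture per well in 96-well plates, in biological duplicates, beside untreated cultures. OD600 was read at 0 h and after 18 h at 30 °C, and compounds under 70% in both replicates were not taken to dose-response.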

As for `COCCNC(=O)C1CCN(C(C(=O)c2c[nH]c3ccccc23)c2ccccc2)CC1` (centres undefined), the “growth inhibition at single dose” value is less than 70%. To `O=C(NCc1ccco1)C1CCN(S(=O)(=O)c2ccc(Cl)cc2)CC1` belongs less than 70%. For `CC(=O)NCCCc1ccc(C(=O)COC(=O)c2ccccc2-n2cnnn2)cc1`, the “growth inhibition at single dose” value was less than 70%. To `FC(F)(F)c1cccc(Nc2nc(-c3ccccc3)nc3ncccc23)c1` belongs less than 70%; to `CN(C)c1nc(N)nc(CN(Cc2nc(N)nc(N(C)C)n2)C23CC4CC(CC(C4)C2)C3)n1`, less than 70%; to `O=C(Nc1ccc(F)c(Cl)c1)c1[nH]nc2ccccc12`, less than 70%. The same measure for `O=S(=O)(c1ccc(Cl)c(N=C2NN=C(c3c[nH]c4ccccc34)CS2)c1)N1CCOCC1`: less than 70%; for `O=C(NC1CCN(Cc2ccccc2)CC1)c1cc2nc(-c3ccc(Cl)s3)cc(C(F)(F)F)n2n1`: less than 70%; for `O=C(Nc1ccccc1)c1ccc(CN2CCN(CCOc3ccccc3)CC2)cc1`: less than 70%. To `Cc1c(C)n(Cc2ccc(F)cc2)c2ccc(C(=O)NCc3ccco3)cc12` belongs less than 70%. In the case of `COC(=O)c1ccccc1NC(=O)/C=C/c1ccc(N2CCCS2(=O)=O)cc1`, the “growth inhibition at single dose” value was less than 70%.

`COc1ccc(Nc2ccccc2NC(=O)c2ccc(O)nc2)cc1`: the “growth inhibition at single dose” value was less than 70%.

On to `Cc1cc(C(=O)COc2ccc(C(N)=O)cc2)c(C)n1-c1ccc2c(c1)OCO2`, for which the “growth inhibition at single dose” value was less than 70%. To `CN1CCN(c2nccc3[nH]c(-c4cccc(F)c4)cc23)CC1` belongs less than 70%.

`COc1ccc(C(=O)Nc2nonc2-c2ccc(OC)c(OC)c2)cc1Cl`: the “growth inhibition at single dose” value was less than 70%. As to `O=C(Nc1cccc([N+](=O)[O-])c1)c1[nH]nc2ccccc12`, the “growth inhibition at single dose” value was less than 70%. As to `COc1cc(CNC(=O)Nc2nc3ccccc3s2)cc(OC)c1OC`, the “growth inhibition at single dose” value is less than 70%. As for `Cc1cc(=O)oc2c1ccc1oc(C(=O)c3ccccc3)c(C)c12`, the “growth inhibition at single dose” value was less than 70%. The same measure for `CNC(=O)c1ccc(CN(C2CC2)S(=O)(=O)c2cc(C)ccc2C)cc1`: less than 70%; for `CC(=O)c1sc(NC(=O)Nc2ccc(C)cc2C)nc1C`: less than 70%; for `Cc1nc(NCc2ccco2)c2c(C)c(C)sc2n1`: less than 70%. To `C[C@@H]1[C@H](O)[C@@H](C)/C=C/C=C/C=C/C=C/C=C/C=C/C=C/[C@H](O[C@@H]2O[C@H](C)[C@@H](O)[C@H](N)[C@@H]2O)C[C@@H]2O[C@](O)(C[C@@H](O)C[C@@H](O)[C@H](O)CC[C@@H](O)C[C@@H](O)CC(=O)O[C@H]1C)C[C@H](O)[C@H]2C(=O)O` belongs less than 70%. The same measure for `OC(c1cn2cc(-c3ccc(F)cc3)nc2s1)(C(F)(F)F)C(F)(F)F`: less than 70%; for `N#CCc1c(C#N)c(N)nc(Nc2ccc(F)cc2F)c1C#N`: less than 70%; for `COc1cc(/C=N/NC(=O)c2ccccc2NS(=O)(=O)c2cccs2)ccc1OCCC(C)C`: less than 70%. On to `Cc1nc(NCc2ccc(N3CCN(C)CC3)nc2)c2c(-c3ccccc3)csc2n1`, for which the “growth inhibition at single dose” value is less than 70%.

In the case of `CCOc1cc(Cl)c(C(C)NC(=O)c2cccc(OC)c2)cc1OCC` (centres undefined), the “growth inhibition at single dose” value is less than 70%.

Regarding `CCCN(CCC)CC(O)COc1ccccc1C(=O)Nc1ccccc1` (centres undefined), the “growth inhibition at single dose” value is less than 70%.

As to `C=CC12CCN(CC1)C(C(O)c1ccnc3ccc(OC)cc13)C2` (centres undefined), the “growth inhibition at single dose” value was less than 70%. To `Cn1ncc2c(N3CCN(CC(=O)Nc4nc(-c5c[nH]c6ccccc56)cs4)CC3)ncnc21` belongs less than 70%. The same measure for `CCOC(=O)c1c(C)nn(-c2ccc(NC(=O)c3cccs3)cc2)c1C`: less than 70%.

For `CC(C)(C)c1ccc(C(=O)NCCOc2ccccc2F)cc1`, the “growth inhibition at single dose” value is less than 70%. The same measure for `COc1ccc(C2=NOC(C(N)=O)C2)cc1OC` (centres undefined): less than 70%. Consider `c1ccc2cc3c(Nc4ccc(N5CCOCC5)cc4)ccnc3cc2c1`, for which the “growth inhibition at single dose” value was less than 70%. To `COc1ccc(C2(C(=O)Nc3ccc(Br)cc3)CCCC2)cc1` belongs less than 70%; to `Cc1ccc(Nc2nc(-c3ccccn3)cs2)cc1`, less than 70%. The same measure for `Clc1cc2c(c3ncccc13)OCN(Cc1ccco1)C2`: less than 70%.

Take `Cc1cc(C)cc(Nc2cc(C)nc3nc(C(F)(F)F)nn23)c1`: the “growth inhibition at single dose” value was less than 70%. Consider `Cc1nn(Cc2ccccc2)c(Cl)c1/C=C/C(=O)OC(C)C(=O)N1CCCC1` (centres undefined), for which the “growth inhibition at single dose” value is less than 70%. With `CCOc1c(Cl)cc(CNCC(O)c2ccccc2)cc1OC` (centres undefined), the “growth inhibition at single dose” value was less than 70%. The same measure for `CCCn1nc(C(=O)NCCc2ccc(-n3cccn3)cc2)c2ccccc2c1=O`: less than 70%. The same measure for `Cc1ccc(S(=O)(=O)Nc2ccc(CN3CCN(C(=O)c4cccc(C#N)c4)CC3)cc2)cc1`: less than 70%; for `Fc1ccccc1-n1cnnc1SC(c1ccccc1)c1ccccc1`: less than 70%. As to `COc1ccc2c(c1)OC(O)(C(F)(F)C(F)(F)F)CC2=O` (centres undefined), the “growth inhibition at single dose” value was less than 70%. To `Brc1ccc(-[n+]2nc(-c3ccccc3)nn2-c2nn[nH]n2)cc1` belongs less than 70%; to `Oc1c(C(Nc2ccccn2)c2cccc(Oc3ccccc3)c2)ccc2cccnc12` (centres undefined), less than 70%; to `C=CCN(C(=O)c1[nH]c(C)c(C(C)=O)c1C)c1nc2c(s1)CCCC2`, less than 70%. The same measure for `CN1c2ccccc2N(C)C1c1ccc2c(c1)OCO2`: less than 70%. `CN(C)c1ccc(C(=O)Nc2cnc3ccccc3c2)cc1`: the “growth inhibition at single dose” value was less than 70%. The same measure for `CNc1snc(C)c1C(=O)OCc1cc(C(=O)OC)c(C)o1`: less than 70%; for `Cc1c(C)c(C)c(S(=O)(=O)N2CCN(C(C)C(=O)NC3CC3)CC2)c(C)c1C` (centres undefined): less than 70%; for `O=C(NC1CCCCC1)C(c1cccs1)N(CCc1ccccc1)C(=O)c1ccco1` (centres undefined): less than 70%. As to `O=S(=O)(c1ccc(Cl)cc1)N1CCN(C(=S)NCc2ccco2)CC1`, the “growth inhibition at single dose” value is less than 70%. With `CNC(=O)CNc1nc(-c2ccccn2)nc2scc(-c3ccccc3)c12`, the “growth inhibition at single dose” value was less than 70%. The same measure for `CC(C(=O)Nc1ccc2oc(-c3ccncc3)nc2c1)c1ccccc1` (centres undefined): less than 70%. To `COc1ccc(-c2nc(C(=O)N3CCc4ccccc43)cs2)cc1OC` belongs less than 70%. To `CCOc1ccccc1NC(C)C(=O)Nc1cc(C(F)(F)F)ccc1N1CCOCC1` (centres undefined) belongs less than 70%; to `Cc1csc(SCC(=O)c2cc(C)n(-c3ccccc3)c2C)n1`, less than 70%; to `Cc1ccc(/C=C2\CCc3c2nc2ccccc2c3C(=O)OCC#N)cc1`, less than 70%.
